Assay results: patent publication US20080058271A1, “Prevention of primary sjogren' s Syndrome by ICA69 deficiency” (priority 2002, published 2008)
Ends that are not written are not given here.

B1: ICA69: Human recombinant islet cell autoantigen 69 kDa (protein)
chain: MSGHKCSYPWDLQDRYAQDKSVVNKMQQKYWETKQAFIKATGKKEDEHVVASDADLDAKLELFHSIQRTCLDLSKAIVLYQKRICFLSQEENELGKFLRSQGFQDKTRAGKMMQATGKALCFSSQQRLALRNPLCRFHQEVETFRHRAISDTWLTVNRMEQCRTEYRGALLWMKDVSQELDPDLYKQMEKFRKVQTQVRLAKKNFDKLKMDVCQKVDLLGASRCNLLSHMLATYQTTLLHFWEKTSHTMAAIHESFKGYQPYEFTTLKSLQDPMKKLVEKEEKKKINQQESTDAAVQEPSQLISLEEENQRKESSSFKTEDGKSILSALDKGSTHTACSGPIDELLDMKSEEGACLGPVAGTPEPEGADKDDLLLLSEIFNASSLEEGEFSKEWAAVFGDGQVKEPVPTMALGEPDPKAQTGSGFLPSQLLDQNMKDLQASLQEPAKAASDLTAWFSLFADLDPLSNPDAVGKTDKEHELLNA

Legend:
[1] = system: MHC class II; conditions: reference 21; cited from earlier work
[2] = system: NOD lymph node cells; experiment: T cell proliferative responses in draining lymph node cells; assay type: cell-based, mouse; conditions: 10 week old NOD females, pooled lymph node cells
Description: FIG. 2. T cell proliferative responses to ICA69, its dominant epitope, Tep69, BSA, and its dominant NOD mouse epitope, ABBOS, were measured in lymph nodes draining the pancreas (A), and submandibular glands (B), or lymph nodes draining the lower (C) or upper (D) extremities. Gray columns: control cultures stimulated with ovalbumin (OVA) or Medium (MED) only. To obtain sufficient cell numbers, lymph node cells were pooled from seven mice. One of three similar data sets is shown.
(§1) NOD lymph-node, spleen and human peripheral blood T cell responses were measured with three slightly different protocols. Draining lymph node cells from 10 week old NOD females were pooled. 2×10^5 lymph node cells along with 2×10^5 irradiated (1100 rad) syngeneic spleen cells were cultured in serum-free AIM-V media (Life Technologies, Mississauga, Ontario, Canada) in the presence of protein or peptide antigen. Proteins (ICA69, BSA or OVA) were used at concentrations of […], peptides (Tep69, ABBOS) at […]. After 72 hr of incubation, cultures were pulsed overnight with […] of [^3H]thymidine, harvested and subjected to liquid scintillation counting. Experiments were repeated three times with similar results, each with lymph nodes pooled from groups of 4-7 mice. Proliferation assays with spleen cells used 4×10^5 responding cells/well and no irradiated splenocytes. For the detection of human T cell responses, Ficoll-Hypaque purified peripheral blood mononuclear cells (PBMC) were cultured at 10^5 cells/well for one week in serum-free Hybrimax 2897 medium (Sigma) supplemented with human IL-2 (10 U/well) and 0.01-10 mg of antigen^15. This assay performed well in a large, blinded study and in the first international T cell workshop of the Immunology of Diabetes Society^22.
This phenotype could reflect a role for ICA69 as an autoantigen or a role for ICA69 protein-function. To begin an analysis of these two alternatives, we measured T cell autoreactivity to ICA69 and its immunodominant T cell epitope, Tep69, in 10 week old NOD females. Proliferative in vitro recall responses were assessed in draining lymph nodes from various tissues, in order to localize where T cell tolerance to ICA69 was lost. […] Spleen cell responses to ICA69, Tep69, BSA and ABBOS were present as previously described by us^21 and others^24 (data not shown, but for example see FIG. 3F).

[3] = system: peripheral blood mononuclear cells (PBMC); experiment: Human T cell proliferative responses in PBMC; assay type: cell-based; conditions: for T cell responses in patients with SLE and in healthy controls / patients with primary SS with positive T cell responses: PBMC; for T cell responses in patients with SLE and in healthy controls: SLE n=6, healthy controls n=12; for patients with primary SS with positive T cell responses: n=9, P 0.008 vs. SLE, P 0.004 vs. healthy controls; for T cell responses to control antigens (stimulation index): PBMC of primary SS, SLE patients and healthy controls
Description: FIG. 7.(A) T cell responses to ICA69, BSA, Tep69, and ABBOS were analyzed in patients with primary SS (n=9) SLE patients (n=6) or healthy controls (n=12). Positive responses to tetanus toxoid (TT) contrasted with negative responses to OVA, actin or the type 1 diabetes-associated GAD65 peptide, p555. Data are expressed as stimulation index (SI, experimental/background cpm, as described herein). Background counts were similar in all cohorts (mean±SD: 1154±354 cpm). FIG. 8. Autoantibodies to ICA69 (1 μg protein/lane) were detected in Western blots of sera (1 to 1000 dilution) from patients with pSS (lanes 1-5) but not in controls (lanes 6-8).
Blood samples were obtained from patients (n=15) with primary SS or SLE at the Arthritis Center at Toronto Western Hospital and from healthy, adult volunteers through ethics-board approved consent (n=12). pSS patients were female, had documented xerostomia and xerophthalmia and met San Diego disease criteria. All were anti-Ro antibody positive, 6 had anti-fodrin autoantibodies and all had minor salivary gland biopsy focus scores of >5. Healthy controls (n=12) of similar age and gender profile were recruited from staff. Fresh blood was used for T cell studies. In immunoblotting experiments, sera from patients and controls were diluted at 1:1000 and blotted on nitrocellulose containing […] of recombinant ICA69 protein to detect the presence of anti-ICA69 antibodies.
as §1
Proliferative T cell responses were expressed as stimulation index (SI, experimental/control cpm). SI's greater than the mean SI in OVA-stimulated cultures plus 3 SD were deemed positive^15. Numeric data were compared by Mann-Whitney tests, Fisher's exact test was used to analyze tables. All P values were two-tailed and significance was set at 5%. Figures present mean values plus lSD.
To determine if ICA69 was an autoimmune target in patients with primary SS, we first measured T cell responses to ICA69 and Tep69 in PBMC from patients with primary SS (n=9), systemic lupus erythematosus (SLE, n=6) and age-matched healthy controls (n=12) (FIG. 7A).

[4] = system: NOD mouse sialoadenitis (submandibular gland mononuclear foci); conditions: single i.p. 200 mg ABBOS in IFA, 10 wk old NOD females
[5] = system: NOD mouse pSS (salivary disease); conditions: instantly disclosed protocol

Molecule | T cell proliferative responses in pancreatic and submandibular lymph node cells [2] | T cell proliferative responses in popliteal or axillary lymph nodes [2] | T cell responses in patients with SLE and in healthy controls [3] | patients with primary SS with positive T cell responses [3] | T cell responses to control antigens (stimulation index) [3] | other results
AFIKATGKKEDE [Tep69] | detected | not in popliteal or axillary lymph nodes | absent | 8 of 9 |  | MHC class II affinity [1]: very low
FKADEKKFWGKYLYE [ABBOS, FKADEKKFWGKYLYE] |  |  |  |  |  | mice with moderate disease exacerbation [4]: 12%; mice with moderate disease exacerbation (of mice analyzed) [4]: 2/17; disease acceleration with the optimized treatment protocol [5]: no acceleration
OVA: Ovalbumin (Sigma), control antigen |  |  |  |  | negative | 
TT: tetanus toxoid, positive control antigen |  |  |  |  | Positive | 
actin |  |  |  |  | negative | 
B1 | detected | not in popliteal or axillary lymph nodes | absent | 8 of 9 |  | 
